Tests used:
[1] = target: T1, HDAC6-HiBiT (endogenously tagged HDAC6 in HeLa HDAC6-HiBiT LgBiT cells) (Homo sapiens, UniProt Q9UBN7); experiment: NanoBRET competition with tracer […]; assay type: cell-based
T1 sequence (Q9UBN7 1-1215): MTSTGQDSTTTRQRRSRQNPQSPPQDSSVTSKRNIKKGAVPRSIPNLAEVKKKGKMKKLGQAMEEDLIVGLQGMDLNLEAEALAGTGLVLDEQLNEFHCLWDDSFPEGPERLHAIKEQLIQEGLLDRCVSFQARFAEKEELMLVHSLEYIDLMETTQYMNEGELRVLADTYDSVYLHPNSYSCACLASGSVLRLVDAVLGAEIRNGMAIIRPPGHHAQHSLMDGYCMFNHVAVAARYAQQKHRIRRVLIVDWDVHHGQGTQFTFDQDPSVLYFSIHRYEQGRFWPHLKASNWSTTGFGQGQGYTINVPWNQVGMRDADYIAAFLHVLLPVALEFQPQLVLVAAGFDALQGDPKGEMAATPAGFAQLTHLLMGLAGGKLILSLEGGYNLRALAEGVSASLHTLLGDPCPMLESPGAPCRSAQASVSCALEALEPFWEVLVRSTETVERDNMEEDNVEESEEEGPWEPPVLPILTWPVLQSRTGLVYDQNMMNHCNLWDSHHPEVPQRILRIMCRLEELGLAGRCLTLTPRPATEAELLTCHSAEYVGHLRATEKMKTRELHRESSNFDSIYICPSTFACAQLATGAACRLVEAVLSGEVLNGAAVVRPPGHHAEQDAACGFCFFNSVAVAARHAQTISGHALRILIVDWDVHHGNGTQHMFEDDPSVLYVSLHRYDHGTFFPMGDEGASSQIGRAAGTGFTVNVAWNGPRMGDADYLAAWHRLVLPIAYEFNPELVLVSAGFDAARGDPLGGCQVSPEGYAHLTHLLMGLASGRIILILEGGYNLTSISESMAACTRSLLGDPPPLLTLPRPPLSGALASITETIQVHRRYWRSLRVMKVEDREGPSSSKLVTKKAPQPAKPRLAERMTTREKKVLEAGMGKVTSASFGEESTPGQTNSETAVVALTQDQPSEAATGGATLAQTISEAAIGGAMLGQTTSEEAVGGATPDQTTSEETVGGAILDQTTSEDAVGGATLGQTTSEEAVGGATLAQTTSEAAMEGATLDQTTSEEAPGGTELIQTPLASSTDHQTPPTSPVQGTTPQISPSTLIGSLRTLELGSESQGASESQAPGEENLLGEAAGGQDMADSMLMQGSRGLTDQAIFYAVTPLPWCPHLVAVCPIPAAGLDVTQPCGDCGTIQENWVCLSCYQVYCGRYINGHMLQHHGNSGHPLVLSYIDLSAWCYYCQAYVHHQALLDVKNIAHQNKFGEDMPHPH

[2] = target: HDAC2 (human recombinant) (Homo sapiens, UniProt Q92769); experiment: fluorogenic HDAC assay (ZMAL substrate, trypsin-coupled); assay type: biochemical
HDAC2 (human recombinant), sequence (Q92769 whole entry): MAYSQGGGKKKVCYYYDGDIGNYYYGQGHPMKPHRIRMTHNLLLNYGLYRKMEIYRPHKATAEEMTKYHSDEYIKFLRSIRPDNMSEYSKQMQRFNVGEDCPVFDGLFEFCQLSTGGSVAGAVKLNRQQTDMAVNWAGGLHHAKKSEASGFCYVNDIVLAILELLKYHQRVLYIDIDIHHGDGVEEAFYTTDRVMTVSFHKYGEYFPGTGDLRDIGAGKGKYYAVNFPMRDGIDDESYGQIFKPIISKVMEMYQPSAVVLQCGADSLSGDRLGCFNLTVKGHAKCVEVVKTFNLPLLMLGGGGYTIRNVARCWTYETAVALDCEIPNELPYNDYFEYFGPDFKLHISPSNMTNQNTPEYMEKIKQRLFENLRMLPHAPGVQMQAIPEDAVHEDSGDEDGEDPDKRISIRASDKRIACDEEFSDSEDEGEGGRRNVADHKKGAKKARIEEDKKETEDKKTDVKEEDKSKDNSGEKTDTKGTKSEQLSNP
From the text: fluorogenic HDAC assay (ZMAL substrate, trypsin-coupled) on HDAC2 (human recombinant)

[3] = target: T2, HDAC6 (human recombinant) (Homo sapiens, UniProt Q9UBN7); experiment: as above; assay type: biochemical
T2 sequence (Q9UBN7 1-1215): T1 sequence (Q9UBN7 1-1215)
From the text: fluorogenic HDAC assay (ZMAL substrate, trypsin-coupled) on HDAC6 (human recombinant)

[4] = target: T1, HDAC6-HiBiT (endogenously tagged HDAC6 in HeLa HDAC6-HiBiT LgBiT cells); experiment: NanoBRET saturation binding; assay type: cell-based
[5] = target: HDAC1 (human recombinant) (Homo sapiens, UniProt Q13547); experiment: fluorogenic HDAC assay (ZMAL substrate, trypsin-coupled); assay type: biochemical
HDAC1 (human recombinant), sequence (Q13547 whole entry): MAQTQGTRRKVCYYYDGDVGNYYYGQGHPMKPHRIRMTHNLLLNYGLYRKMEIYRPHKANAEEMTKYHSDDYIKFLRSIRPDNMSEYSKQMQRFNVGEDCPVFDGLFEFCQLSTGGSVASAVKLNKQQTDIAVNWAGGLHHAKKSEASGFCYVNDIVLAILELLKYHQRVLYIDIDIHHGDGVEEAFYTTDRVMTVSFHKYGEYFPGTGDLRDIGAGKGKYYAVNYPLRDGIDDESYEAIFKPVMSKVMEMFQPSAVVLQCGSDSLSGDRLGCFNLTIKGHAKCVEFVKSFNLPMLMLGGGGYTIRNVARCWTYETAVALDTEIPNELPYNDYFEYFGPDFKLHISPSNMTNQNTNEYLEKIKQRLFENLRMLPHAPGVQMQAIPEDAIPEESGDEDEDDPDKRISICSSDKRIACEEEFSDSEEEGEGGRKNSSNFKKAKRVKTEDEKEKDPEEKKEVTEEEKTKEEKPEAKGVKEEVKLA
From the text: fluorogenic HDAC assay (ZMAL substrate, trypsin-coupled) on HDAC1 (human recombinant)

IC50 [1] [nM] | IC50 [2] [nM] | IC50 [3] [nM] | Kd [4] [nM] | IC50 [5] [nM] | Structure (SMILES)
75 ± 30 |  |  |  |  | FC(F)c1nnc(-c2cnc(NCc3ccccc3)nc2)o1 [BK1]
 | 220 ± 10 | 9.1 ± 0.1 | 80 ± 11 | 130 ± 20 | CN(C)c1ccc2c(-c3ccc(C(=O)NCCCn4cc(COc5ccc(C(=O)NCCCCCCC(=O)NO)cc5)nn4)cc3C(=O)[O-])c3ccc(=[N+](C)C)cc-3oc2c1 [compound 5, 2-[6-(Dimethylamino)-3-(dimethyliminio)-3H-xanthen-9-yl]-5-[(3-{4-[(4-{[7-(hydroxyamino)-7-oxoheptyl]carbamoyl}phenoxy)methyl]-1H-1,2,3-triazol-1-yl}propyl)carbamoyl]benzoate]
 | 340 ± 40 | 18 ± 1 | 120 ± 40 | 200 ± 20 | CN(C)c1ccc2c(-c3ccc(C(=O)NCCOCCOCCOCCn4cc(COc5ccc(C(=O)NCCCCCCC(=O)NO)cc5)nn4)cc3C(=O)[O-])c3ccc(N(C)C)cc3[o+]c2c1 [compound 4, tracer 4]
